Source: patent publication EP0624573A1, “Iodo vitamin D3 compounds and method for preparing same” (WISCONSIN ALUMNI RESEARCH FOUNDATION, priority 1993, dated 1994)

Columns and labels:
HL-60 cells = assay: HL-60 differentiation assay, NBT (nitroblue tetrazolium reduction); type: cell-based, human; details: for percent of HL-60 cells having differentiated to monocytes: NBT assay, concentration of 1 x 10⁻⁷ molar (Fig. 1); for potency in promoting the differentiation of leukemia cells: in words, compared with 1α,25-dihydroxyvitamin D₃ (Fig. 1)
Experimental: This is illustrated by the biological assay results obtained for the claimed 22-iodo-vitamin D₃ compounds, which are summarized in Figs. 1 and 2, and Table 1. […] Differentiation activity was assessed by a standard differentiation assay, abbreviated in Fig. 1 as NBT (nitroblue tetrazolium reduction). The assay was conducted according to known procedures, as given, for example, by DeLuca et al U. S. Patent 4,717,721 and Ostrem et al, J. Biol. Chem. 262, 14164, 1987. For the assay, the differentiation activity of the test compounds is expressed in terms of the percent of HL-60 cells having differentiated to monocytes in response to a given concentration of test compound.

[1] = Intestinal calcium transport in vitamin D-deficient, low calcium diet rats; type: in vivo; details: for Intestinal Calcium Transport (Serosal/Mucosal Ratio): duodenum on day 7
Experimental: (§1) Rats were fed the vitamin D-deficient, low calcium (0.02%) diet for 3 weeks and then given the indicated dose in 0.1 ml propylene glycol:ethanol (95:5) intraperitoneally each day for 6 days. On day 7, serum was analyzed for calcium and the duodenum used to measure intestinal calcium transport as described by Martin et al. Am. J. Physiol.

[2] = Bone calcium mobilization (serum calcium) in vitamin D-deficient, low calcium diet rats; type: in vivo; details: for Bone Calcium Mobilization (Serum Calcium): serum on day 7
Experimental: as §1

[3] = dose 1.0 µg/d/6 days intraperitoneally
[4] = dose 0.1 µg/d/6 days intraperitoneally

Row | Structure (SMILES) | percent of HL-60 cells having differentiated to monocytes (HL-60 cells) | potency in promoting the differentiation of leukemia cells (HL-60 cells) | biological activity in intestinal calcium transport relative to that of 1,25-(OH)₂D₃ ([1]; Table 1 (1.0 µg/d versus 0.1 µg/d of 1,25-(OH)₂D₃)) | Intestinal Calcium Transport (Serosal/Mucosal Ratio) [1, 3] | Bone Calcium Mobilization (Serum Calcium) [2, 3] [mg/100 ml] | bone calcium mobilizing activity ([2]; in words, 1µg per day for six days) | Intestinal Calcium Transport (Serosal/Mucosal Ratio) [1, 4] | Bone Calcium Mobilization (Serum Calcium) [2, 4] [mg/100 ml]
1 | C=C1/C(=C\C=C2/CCC[C@]3(C)[C@@H]([C@H](C)[C@@H](I)CCC(C)(C)O)CC[C@@H]23)C[C@@H](O)C[C@@H]1O [compound 9, (22S)-iodo-1α,25-dihydroxyvitamin D₃] | the same degree of differentiation | as potent as 1α,25-dihydroxyvitamin D₃ | about double | 22.8 ± 1.4 | 4.9 ± 0.1 | little or no bone calcium mobilizing activity | – | –
2 | C=C1/C(=C\C=C2/CCC[C@]3(C)[C@@H]([C@H](C)[C@H](I)CCC(C)(C)O)CC[C@@H]23)C[C@@H](O)C[C@@H]1O [compound 11, (22R)-iodo-1α,25-dihydroxyvitamin D₃] | the same degree of differentiation | as potent as 1α,25-dihydroxyvitamin D₃ | – | – | – | – | – | –
3 | C=C1/C(=C\C=C2/CCC[C@]3(C)[C@@H]([C@H](C)CCCC(C)(C)O)CC[C@@H]23)C[C@@H](O)C[C@@H]1O [1,25-(OH)₂D₃, 1α,25-dihydroxyvitamin D₃, reference compound] | ~90% | – | – | – | – | – | 11.2 ± 1.2 | 5.9 ± 0.3
